{"source": "patent US20150209327A1", "about": "“METHODS FOR THE TREATMENT OF OBESITY USING APREMILAST” (Celgene Corporation, priority 2014, published 2015)", "key": {"[1]": {"system": "TNF-α production in PBMCs", "assay": "Inhibition of TNF-α production in PBMCs", "type": "cell-based", "conditions": "PBMC", "description": "The test methods were as described in WO 03/080049; Muller et al., J. Med. Chem., 1996, 39:3238; and Muller et al., Bioorg. Med. Chem. Lett., 1999, 9:1625-30."}, "PDE6": {"molecular_target": "T1, PDE6 (Bos taurus, UniProt P11541+P23439)", "T1 sequence (P11541 1-859)": "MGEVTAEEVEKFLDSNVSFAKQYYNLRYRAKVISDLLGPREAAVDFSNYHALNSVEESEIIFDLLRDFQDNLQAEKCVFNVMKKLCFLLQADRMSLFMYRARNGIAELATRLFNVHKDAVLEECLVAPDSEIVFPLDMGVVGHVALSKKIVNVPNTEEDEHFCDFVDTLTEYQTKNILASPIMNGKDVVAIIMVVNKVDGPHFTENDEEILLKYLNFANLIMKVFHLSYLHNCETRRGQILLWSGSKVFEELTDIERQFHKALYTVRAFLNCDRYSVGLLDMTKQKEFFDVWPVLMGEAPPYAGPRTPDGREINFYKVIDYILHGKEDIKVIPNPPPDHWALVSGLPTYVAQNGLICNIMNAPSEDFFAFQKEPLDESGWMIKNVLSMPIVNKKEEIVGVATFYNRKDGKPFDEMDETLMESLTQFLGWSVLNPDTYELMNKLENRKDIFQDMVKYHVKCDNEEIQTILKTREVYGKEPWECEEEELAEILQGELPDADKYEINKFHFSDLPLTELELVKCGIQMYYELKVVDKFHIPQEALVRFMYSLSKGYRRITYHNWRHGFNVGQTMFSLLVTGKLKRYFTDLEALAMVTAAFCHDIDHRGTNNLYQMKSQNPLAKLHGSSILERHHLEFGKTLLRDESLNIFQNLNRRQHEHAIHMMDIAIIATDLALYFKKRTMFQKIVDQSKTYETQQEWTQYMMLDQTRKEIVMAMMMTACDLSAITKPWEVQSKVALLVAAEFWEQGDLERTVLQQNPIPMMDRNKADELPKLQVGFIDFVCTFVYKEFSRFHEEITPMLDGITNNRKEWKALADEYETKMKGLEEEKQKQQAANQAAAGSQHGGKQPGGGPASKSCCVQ", "T1 sequence (P23439 1-853)": "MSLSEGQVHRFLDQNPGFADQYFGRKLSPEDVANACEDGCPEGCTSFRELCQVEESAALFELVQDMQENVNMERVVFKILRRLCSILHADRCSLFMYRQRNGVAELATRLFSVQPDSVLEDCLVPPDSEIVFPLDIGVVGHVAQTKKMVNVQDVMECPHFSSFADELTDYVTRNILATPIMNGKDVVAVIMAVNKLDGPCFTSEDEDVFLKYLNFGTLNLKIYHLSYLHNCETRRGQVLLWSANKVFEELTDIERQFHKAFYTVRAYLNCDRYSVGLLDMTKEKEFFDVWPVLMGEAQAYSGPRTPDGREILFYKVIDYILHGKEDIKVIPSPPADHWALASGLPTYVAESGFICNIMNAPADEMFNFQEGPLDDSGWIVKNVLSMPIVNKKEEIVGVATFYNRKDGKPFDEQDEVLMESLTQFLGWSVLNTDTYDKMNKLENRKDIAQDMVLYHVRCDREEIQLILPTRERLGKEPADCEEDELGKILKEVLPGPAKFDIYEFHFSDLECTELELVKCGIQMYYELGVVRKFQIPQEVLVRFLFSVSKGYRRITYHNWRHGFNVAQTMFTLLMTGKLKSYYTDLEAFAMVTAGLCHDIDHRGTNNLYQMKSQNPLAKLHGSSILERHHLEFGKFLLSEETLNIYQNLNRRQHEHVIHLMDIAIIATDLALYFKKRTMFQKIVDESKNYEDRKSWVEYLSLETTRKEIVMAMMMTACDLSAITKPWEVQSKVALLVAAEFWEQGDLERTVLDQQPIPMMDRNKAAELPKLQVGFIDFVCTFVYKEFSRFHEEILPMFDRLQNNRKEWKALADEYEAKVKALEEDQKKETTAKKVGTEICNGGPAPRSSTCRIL", "assay": "PDE6 enzyme assay", "type": "biochemical", "description": "PDE1, 2, 3 and 5 enzyme assays were prepared as described by Hidaka and Asano. Biochem. Biophys. Acta., 1976, 429:485; see also Nicholsen et al., Trends Pharmaco. Sci., 1991, 12:19. The PDE6 enzyme assay was prepared according to Baehr et al., J. Biol. Chem., 1979, 254:11669 and Gillespie et al., Mol. Pharm., 1989, 36: 773. The PDE7 enzyme assay was prepared according to Bloom and Beavo. Proc. Natl. Acad. Sci. USA, 1996, 93:14188-92."}}}
{"molecule": "CCOc1cc([C@@H](CS(C)(=O)=O)N2C(=O)c3cccc(NC(C)=O)c3C2=O)ccc1OC", "note": "[Apremilast, (+)-2-[1-(3-ethoxy-4-methoxyphenyl)-2-methylsulfonylethyl]-4-acetylaminoisoindoline-1,3-dione]", "values": [{"measurement": "IC50", "setting": "[1]", "result": 77, "unit": "nM"}, {"measurement": "inhibition at 10 µM", "setting": "PDE6", "result": -6, "unit": "%"}]}
